From US10150737B2, “Compounds for controlling arthropods” (priority 2013, dated 2018)

How the values were obtained:
[1] = logP determination by HPLC on a reversed-phase column (C18); format: physicochemical; details: for logP^a): HPLC-MS method a); for log P: HPLC-MS
Boophilus microplus = Boophilus microplus - injection test; format: in vivo; details: application rate 20 μg/animal, injection into engorged adult female ticks, after 7 days
Description: (§1) Solvent: dimethyl sulphoxide
To produce an appropriate active ingredient formulation, 10 mg of active ingredient are mixed with 0.5 ml of solvent and the concentrate is diluted with solvent to the desired concentration.
1 μl of the active ingredient solution is injected into the abdomen of 5 engorged adult female cattle ticks (Boophilus microplus). The animals are transferred into dishes and kept in a climate-controlled room.
Efficacy is assessed after 7 days by laying of fertile eggs. Eggs which are not visibly fertile are stored in a climate-controlled cabinet until the larvae hatch after about 42 days. An efficacy of 100% means that none of the ticks has laid any fertile eggs; 0% means that all the eggs are fertile.

Ctenocephalides felis = Ctenocephalides felis - oral test; format: in vivo; details: application rate 100 ppm in citrated cattle blood; after 2 days
Description: as §1
For the purpose of producing an appropriate active ingredient formulation, 10 mg of active ingredient are mixed with 0.5 ml of dimethyl sulphoxide. Dilution with citrated cattle blood gives the desired concentration.
About 20 unfed adult cat fleas (Ctenocephalides felis) are placed into a chamber which is closed at the top and bottom with gauze. A metal cylinder whose bottom end is closed with parafilm is placed onto the chamber. The cylinder contains the blood/active ingredient preparation, which can be imbibed by the fleas through the parafilm membrane.
After 2 days, the kill in % is determined. 100% means that all of the fleas have been killed; 0% means that none of the fleas have been killed.

Lucilia cuprina = Lucilia cuprina test; format: in vivo; details: application rate 100 ppm; L1 larvae; after 2 days
Description: as §1
(§2) To produce an appropriate active ingredient formulation, 10 mg of active ingredient are mixed with 0.5 ml of dimethyl sulphoxide, and the concentrate is diluted with water to the desired concentration.
About 20 L1 larvae of the Australian sheep blowfly (Lucilia cuprina) are transferred into a test vessel containing minced horsemeat and the active ingredient preparation of the desired concentration.
After 2 days, the kill in % is determined. 100% means that all the larvae have been killed; 0% means that none of the larvae have been killed.

Musca domestica = Musca domestica test; format: in vivo; details: adult houseflies, after 2 days
Description: as §1, §2
Vessels containing a sponge treated with sugar solution and the active ingredient formulation of the desired concentration are populated with 10 adult houseflies (Musca domestica).
After 2 days, the kill in % is determined. 100% means that all of the flies have been killed; 0% means that none of the flies have been killed.

Phaedon cochleariae = Phaedon cochleariae - spray test; format: in vivo; details: larvae on Chinese cabbage leaf discs, after 7 days
In short: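 Mortality of mustard beetle larvae was scored as % at day 7 on Brassica pekinensis leaf discs. Discs had been treated by spraying at the desired concentration, using an acetone/dimethylformamide solution diluted in water with 1000 ppm alkylaryl polyglycol ether, and dried before larvae were added.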

Spodoptera frugiperda = Spodoptera frugiperda - spray test; format: in vivo; details: caterpillars on maize leaf discs, after 7 days
Description: (§3) Solvent: 78.0 parts by weight of acetone and 1.5 parts by weight of dimethylformamide
(§4) Emulsifier: alkylaryl polyglycol ether
(§5) To produce an appropriate active ingredient formulation, 1 part by weight of active ingredient is dissolved using the specified parts by weight of solvent and made up with water containing an emulsifier concentration of 1000 ppm until the desired concentration is attained. To produce further test concentrations, the preparation is diluted with emulsifier-containing water.
Leaf discs of maize (Zea mays) are sprayed with an active ingredient formulation of the desired concentration and, after drying, populated with caterpillars of the armyworm (Spodoptera frugiperda).
After 7 days, efficacy in % is determined. 100% means that all the caterpillars have been killed; 0% means that no caterpillars have been killed.

Tetranychus urticae = Tetranychus urticae - spray test, OP-resistant; format: in vivo; details: bean leaf discs, after 6 days
Description: as §3, §4, §5
Discs of bean leaves (Phaseolus vulgaris) infested by all stages of the greenhouse red spider mite (Tetranychus urticae) are sprayed with an active ingredient formulation of the desired concentration.
After 6 days, efficacy in % is determined. 100% means that all the spider mites have been killed; 0% means that none of the spider mites have been killed.

[2] = reversed-phase column (C18), Table I-T3

CCc1cc(C(F)(C(F)(F)F)C(F)(F)F)ccc1-n1cc(-c2cncc(C(=O)NC3CC3)c2)cn1 [I-T3-79]
logP^a) [1]: 3.3
logP^a) [1, 2]: 3.3
efficacy (laying of fertile eggs) (Boophilus microplus): 100%
efficacy (kill) (Ctenocephalides felis): 95%
efficacy (kill) (Lucilia cuprina): 80%
efficacy (kill) (Musca domestica; application rate 100 ppm): 80%
efficacy (Phaedon cochleariae; application rate 500 g/ha): 100%
efficacy (Spodoptera frugiperda; application rate 500 g/ha): 100%

CCc1cc(C(F)(C(F)(F)F)C(F)(F)F)cc(C)c1-n1cc(-c2ccc(Cl)c(C(=O)NC3CC3)c2F)cn1 [I-T3-68]
logP^a) [1]: 4.6
logP^a) [1, 2]: 4.8
efficacy (laying of fertile eggs) (Boophilus microplus): 100%
efficacy (kill) (Ctenocephalides felis): 100%
efficacy (kill) (Lucilia cuprina): 100%
efficacy (kill) (Musca domestica; application rate 100 ppm): 80%
efficacy (Phaedon cochleariae; application rate 500 g/ha): 100%
efficacy (Spodoptera frugiperda; application rate 500 g/ha): 100%

N#CC1(NC(=O)c2cc(-c3cnn(-c4ncc(C(F)(C(F)(F)F)C(F)(F)F)cc4Cl)c3)ccc2Cl)CC1 [I-T3-151]
logP^a) ([1]; reversed-phase column (C18)): 4.0
log P [1, 2]: 4.0
efficacy (laying of fertile eggs) (Boophilus microplus): 100%
efficacy (kill) (Ctenocephalides felis): 100%
efficacy (kill) (Lucilia cuprina): 100%
efficacy (kill) (Musca domestica; application rate 100 ppm): 100%
efficacy (Phaedon cochleariae; application rate 100 g/ha): 100%
efficacy (Spodoptera frugiperda; application rate 100 g/ha): 100%
efficacy (Tetranychus urticae; application rate 100 g/ha): 90%

O=C(NC1CC1)c1c(Cl)ccc(-c2cnn(-c3c(Cl)cc(C(F)(C(F)(F)F)C(F)(F)F)cc3Cl)c2)c1F [I-T3-73]
logP^a) [1]: 4.5
logP^a) [1, 2]: 4.5
efficacy (laying of fertile eggs) (Boophilus microplus): 100%
efficacy (kill) (Ctenocephalides felis): 100%
efficacy (kill) (Lucilia cuprina): 100%
efficacy (kill) (Musca domestica; application rate 100 ppm): 100%
efficacy (Phaedon cochleariae; application rate 500 g/ha): 100%
efficacy (Spodoptera frugiperda; application rate 500 g/ha): 100%
efficacy (Tetranychus urticae; application rate 100 g/ha): 100%

N#CC1(NC(=O)c2cc(-c3cnn(-c4ncc(C(F)(F)F)cc4C(F)(F)F)c3)ccc2Cl)CC1 [I-T3-149]
logP^a) ([1]; reversed-phase column (C18)): 3.5
log P [1, 2]: 3.5
efficacy (laying of fertile eggs) (Boophilus microplus): 100%
efficacy (kill) (Ctenocephalides felis): 100%
efficacy (kill) (Lucilia cuprina): 100%
efficacy (kill) (Musca domestica; application rate 100 ppm): 100%
efficacy (Phaedon cochleariae; application rate 100 g/ha): 100%

COc1ncc(-c2cnn(-c3c(C)cc(C(F)(C(F)(F)F)C(F)(F)F)cc3C)c2)cc1C(=O)N(C)C1CC1 [I-T3-144]
logP^a) ([1]; reversed-phase column (C18)): 4.4
log P [1, 2]: 4.4
efficacy (laying of fertile eggs) (Boophilus microplus): 100%
efficacy (kill) (Ctenocephalides felis): 90%
efficacy (kill) (Lucilia cuprina): 100%
efficacy (kill) (Musca domestica; application rate 100 ppm): 100%
efficacy (Phaedon cochleariae; application rate 100 g/ha): 100%

CCc1cc(C(F)(C(F)(F)F)C(F)(F)F)cc(C)c1-n1cc(-c2ccc(Cl)c(C(=O)NC3(C#N)CC3)c2F)cn1 [I-T3-66]
logP^a) [1]: 4.6
logP^a) [1, 2]: 4.6
efficacy (laying of fertile eggs) (Boophilus microplus): 100%
efficacy (kill) (Ctenocephalides felis): 100%
efficacy (kill) (Lucilia cuprina): 100%
efficacy (kill) (Musca domestica; application rate 100 ppm): 80%
efficacy (Phaedon cochleariae; application rate 500 g/ha): 100%
efficacy (Spodoptera frugiperda; application rate 500 g/ha): 100%

Cc1cc(C(F)(C(F)(F)F)C(F)(F)F)cc(C)c1-n1cc(-c2ccc(Cl)c(C(=O)NC3CSC3)c2)cn1 [I-T3-4]
logP^a) [1]: 4.7
logP^a) [1, 2]: 4.7
efficacy (laying of fertile eggs) (Boophilus microplus): 100%
efficacy (kill) (Ctenocephalides felis): 100%
efficacy (kill) (Lucilia cuprina): 100%
efficacy (kill) (Musca domestica; application rate 100 ppm): 100%
efficacy (Phaedon cochleariae; application rate 100 g/ha): 100%
efficacy (Spodoptera frugiperda; application rate 100 g/ha): 100%
efficacy (Tetranychus urticae; application rate 100 g/ha): 100%

O=C(NC1CC1)c1cc(-c2cnn(-c3ncc(C(F)(F)F)cc3C(F)(F)F)c2)ccc1Cl [I-T3-150]
logP^a) ([1]; reversed-phase column (C18)): 3.6
log P [1, 2]: 3.6
efficacy (laying of fertile eggs) (Boophilus microplus): 100%
efficacy (kill) (Ctenocephalides felis): 100%
efficacy (kill) (Lucilia cuprina): 100%
efficacy (kill) (Musca domestica; application rate 100 ppm): 100%

O=C(NC1CC1)c1cc(-c2cnn(-c3ccc(C(F)(C(F)(F)F)C(F)(F)F)cc3OC(F)(F)F)c2)ccc1Cl [I-T3-35]
logP^a) [1]: 4.7
logP^a) [1, 2]: 4.7
efficacy (laying of fertile eggs) (Boophilus microplus): 100%
efficacy (kill) (Ctenocephalides felis): 100%
efficacy (kill) (Lucilia cuprina): 100%
efficacy (kill) (Musca domestica; application rate 4 ppm): 80%
efficacy (Phaedon cochleariae; application rate 500 g/ha): 100%
efficacy (Spodoptera frugiperda; application rate 100 g/ha): 83%

N#CC1(NC(=O)c2cc(-c3cnn(-c4c(F)cc(C(F)(C(F)(F)F)C(F)(F)F)cc4F)c3)ccc2Cl)CC1 [I-T3-62]
logP^a) [1]: 3.9
logP^a) [1, 2]: 3.9
efficacy (laying of fertile eggs) (Boophilus microplus): 100%
efficacy (kill) (Ctenocephalides felis): 100%
efficacy (kill) (Lucilia cuprina): 100%
efficacy (kill) (Musca domestica; application rate 100 ppm): 100%
efficacy (Phaedon cochleariae; application rate 100 g/ha): 100%
efficacy (Spodoptera frugiperda; application rate 100 g/ha): 100%
efficacy (Tetranychus urticae; application rate 100 g/ha): 100%

Cc1cc(C(F)(C(F)(F)F)C(F)(F)F)cc(C)c1-n1cc(-c2ncc(Cl)c(C(=O)NC3CC3)n2)cn1 [I-T3-121, 5-chloro-N-cyclopropyl-2-[1-[2,6-dimethyl-4-[1,2,2,2-tetrafluoro-1-(trifluoromethyl)ethyl]phenyl]pyrazol-4-yl]pyrimidine-4-carboxamide]
pest or weed control at 0.02 mg (Boophilus microplus; Rhipicephalus microplus, 168 h, read-out: efficacy (laying of fertile eggs)): 80%
efficacy (kill) (Musca domestica; application rate 100 ppm): 80%

N#CC1(NC(=O)c2cc(-c3cnn(-c4ccc(C(F)(C(F)(F)F)C(F)(F)F)cc4OC(F)(F)F)c3)ccc2Cl)CC1 [I-T3-34]
logP^a) [1]: 4.6
logP^a) [1, 2]: 4.6
efficacy (laying of fertile eggs) (Boophilus microplus): 100%
efficacy (kill) (Ctenocephalides felis): 100%
efficacy (kill) (Lucilia cuprina): 100%
efficacy (kill) (Musca domestica; application rate 100 ppm): 100%
efficacy (Phaedon cochleariae; application rate 500 g/ha): 100%
efficacy (Spodoptera frugiperda; application rate 500 g/ha): 100%
efficacy (Tetranychus urticae; application rate 500 g/ha): 100%

Cc1cc(C(F)(C(F)(F)F)C(F)(F)F)cc(C)c1-n1cc(-c2ccc(Cl)c(C(=O)NC3(C(F)(F)F)CC3)c2)cn1 [I-T3-5]
logP^a) [1]: 4.6
logP^a) [1, 2]: 4.6
efficacy (laying of fertile eggs) (Boophilus microplus): 100%
efficacy (kill) (Ctenocephalides felis): 100%
efficacy (kill) (Lucilia cuprina): 100%
efficacy (kill) (Musca domestica; application rate 100 ppm): 100%
efficacy (Phaedon cochleariae; application rate 100 g/ha): 100%

Cc1cc(C(F)(C(F)(F)F)C(F)(F)F)cc(C)c1-n1cc(-c2ccc(Cl)c(C(=O)NC3(C#N)CC3)c2F)cn1 [I-T3-65]
logP^a) [1]: 4.4
logP^a) [1, 2]: 4.3
efficacy (laying of fertile eggs) (Boophilus microplus): 100%
efficacy (kill) (Ctenocephalides felis): 100%
efficacy (kill) (Lucilia cuprina): 100%
efficacy (kill) (Musca domestica; application rate 100 ppm): 100%
efficacy (Phaedon cochleariae; application rate 500 g/ha): 100%
efficacy (Spodoptera frugiperda; application rate 500 g/ha): 100%
efficacy (Tetranychus urticae; application rate 500 g/ha): 90%

O=C(NCC(F)(F)F)c1cc(-c2cnn(-c3c(Cl)cc(C(F)(C(F)(F)F)C(F)(F)F)cc3C(F)(F)F)c2)ccc1Cl [I-T3-58]
logP^a) [1]: 4.7
logP^a) [1, 2]: 4.7
efficacy (laying of fertile eggs) (Boophilus microplus): 100%
efficacy (kill) (Ctenocephalides felis): 100%
efficacy (kill) (Lucilia cuprina): 100%
efficacy (kill) (Musca domestica; application rate 100 ppm): 100%
efficacy (Phaedon cochleariae; application rate 100 g/ha): 100%
efficacy (Spodoptera frugiperda; application rate 100 g/ha): 100%
efficacy (Tetranychus urticae; application rate 100 g/ha): 100%

CCc1cc(C(F)(C(F)(F)F)C(F)(F)F)cc(C)c1-n1cc(-c2ccc(Cl)c(C(=O)NCC(F)(F)F)c2)cn1 [I-T3-45]
logP^a) [1]: 5.0
logP^a) [1, 2]: 5.0
efficacy (laying of fertile eggs) (Boophilus microplus): 100%
efficacy (kill) (Ctenocephalides felis): 95%
efficacy (kill) (Lucilia cuprina): 100%
efficacy (Phaedon cochleariae; application rate 500 g/ha): 100%
efficacy (Spodoptera frugiperda; application rate 500 g/ha): 100%
efficacy (Tetranychus urticae; application rate 500 g/ha): 100%

CCc1cc(C(F)(C(F)(F)F)C(F)(F)F)ccc1-n1cc(-c2ccc(Cl)c(C(=O)NC3CSC3)c2)cn1 [I-T3-41]
logP^a) [1]: 4.9
logP^a) [1, 2]: 4.9
efficacy (laying of fertile eggs) (Boophilus microplus): 100%
efficacy (kill) (Ctenocephalides felis): 95%
efficacy (kill) (Lucilia cuprina): 90%
efficacy (Phaedon cochleariae; application rate 100 g/ha): 100%
efficacy (Spodoptera frugiperda; application rate 100 g/ha): 100%
efficacy (Tetranychus urticae; application rate 100 g/ha): 100%
